Measurements as given in patent publication US11440923B2, “Substituted macrocyclic indole derivatives” (Bayer Aktiengesellschaft, priority 2017, dated 2022).
Where a name gives a salt, the structure may show the parent alone.

Tests used:
SUDHL5 cells = experiment: Induction of cytotoxicity in SUDHL5 cells (Assay 6); assay type: cell-based; conditions: 5 h, CellTiter-Glo; read-out: Cytotox SUDHL5 IC50 (median)
Description: (§1) Assay 6 Induction of Cytotoxicity Upon Treatment of Cells with Selected Compounds
(§2) In principle, compounds that induce apoptosis will concomitantly induce cell cytotoxicity. Therefore, cytotoxicity assays were run in parallel in SUDHL5 and SUDHL10 cells.
(§3) As a control, medium without cells was also added to the plate. Cells were incubated in a humidified incubator at 37° C. overnight. […] Rim wells were excluded. The cells were incubated for 5 h hours in a humidified incubator at 37° C. After this incubation, 30 μL of CellTiter-Glo® Luminescent Cell Viability reagent (Promega, G7573) was added to each well using the Multidrop Combi Reagent Dispenser, followed by 15 min incubation on a shaker at room temperature. Finally, luminescence was read at 0.1 ms, with a gain of 3000 using the PHERAstar FS microplate reader (BMG Labtech).

SUDHL10 cells = experiment: Induction of cytotoxicity in SUDHL10 cells (Assay 6); assay type: cell-based; conditions: 5 h, CellTiter-Glo; read-out: Cytotox SUDHL10 IC50 (median)
Description: as §1, §2, §3

Work on `CCc1c2c(nn1C)C(CCN1CCOCC1)OCCCCn1c(C(=O)O)c(CCCOc3cccc4cc(F)ccc34)c3ccc(Cl)c-2c31` (single isomer, unassigned; enantiomer 2) [Example 24, (−)-4-chloro-3-ethyl-7-{3-[(6-fluoronaphthalen-1-yl)oxy]propyl}-2-methyl-15-[2-(morpholin-4-yl)ethyl]-2,10,11,12,13,15-hexahydropyrazolo[4′,3′:9,10][1,6]oxazacycloundecino[8,7,6-hi]indole-8-carboxylic acid—N-ethylethanamine (Enantiomer 2)] yielded an IC50 (SUDHL5 cells) of 1700 nM and an IC50 (SUDHL10 cells) of 6600 nM.
With `CCc1c2c(nn1C)[C@@H](CCN1CCOCC1)OCCCCn1c(C(=O)O)c(CCCOc3cccc4cc(F)ccc34)c3ccc(Cl)c-2c31` [Example 48, (15R)-4-chloro-3-ethyl-7-{3-[(6-fluoronaphthalen-1-yl)oxy]propyl}-2-methyl-15-[2-(morpholin-4-yl)ethyl]-2,10,11,12,13,15-hexahydropyrazolo[4′,3′:9,10][1,6]oxazacycloundecino[8,7,6-hi]indole-8-carboxylic Acid—N-ethylethanamine Salt] the IC50 (SUDHL5 cells) was 210 nM and the IC50 (SUDHL10 cells) was 200 nM.
In the case of `CCc1c2c(nn1C)C(CCN1CCOCC1)OCCCCn1c(C(=O)O)c(CCCOc3cccc4cc(F)ccc34)c3ccc(Cl)c-2c31` (single isomer, unassigned; enantiomer 1) [Example 23, (+)-4-chloro-3-ethyl-7-{3-[(6-fluoronaphthalen-1-yl)oxy]propyl}-2-methyl-15-[2-(morpholin-4-yl)ethyl]-2,10,11,12,13,15-hexahydropyrazolo[4′,3′:9,10][1,6]oxazacycloundecino[8,7,6-hi]indole-8-carboxylic Acid—N-ethylethanamine (Enantiomer 1)], the IC50 (SUDHL5 cells) is reported as 7.8 nM and the IC50 (SUDHL10 cells) is reported as 9.7 nM.
